Values of other authors, collected in patent publication US8053472B2, “Use of the acetyl L-carnitine in association with the biotin for the treatment of patients with type 2 insulin-resistant diabetes mellitus” (Sigma-Tau Industrie Farmaceutiche Riunite S.p.A., priority 2001, dated 2011).

Test system: hypertriglyceridemic rats with noninsulin-dependent diabetes mellitus
Conditions: high doses of biotin added to the diet

For `O=C(O)CCCC[C@@H]1SC[C@@H]2NC(=O)N[C@@H]21` [biotin], the “altered tolerance to glucose” value is given as “improves”.
